Assay results as given in patent US10178866B2, “N-halamine containing fibrous compositions and uses thereof” (priority 2014, dated 2019).

Legend:
[1] = system: Staphylococcus aureus ATCC 6538; test: sandwich test, gauze pads (wound dressing); format: cell-based; settings: chlorine loading 0.47 ± 0.01 wt %, inoculum 6.00 logs
Protocol: (§1) Compound I at a concentration of 1% by weight was dissolved in ethyl alcohol at room temperature. Non-stick gauze pads sized 20.3×7.6 cm (8×3 inch) obtained from Curad® were soaked in the solution for 10 minutes. The gauze pads were then passed through a laboratory wringer (Birch Brothers Southern, Waxhaw, N.C., U.S.A.) at low pressure settings. This procedure was followed by drying the samples at room temperature overnight. The titrated oxidative chlorine loading of the gauze pads was 0.47±0.01 wt %.
(§2) Gauze pads impregnated with compound I and non-impregnated sterile gauze pads (used as received as controls) were challenged with Staphylococcus aureus (S. aureus, ATCC 6538), Escherichia coli(E. coli O157:H7, ATCC 43895), and Pseudomonas aeruginosa (P. aeruginosa, ATCC 27853). The bacteria were suspended in 100 μM phosphate buffer (pH 7) to produce a suspension of known population (colony forming units, CFU/mL). Then, an aliquot of 25 μL of this suspension was placed in the center of a 2.54×2.54 cm^2 gauze swatch, and a second identical swatch was placed on top. Both swatches were covered by a sterile weight to ensure sufficient contact with the bacteria. After predetermined contact times, samples were quenched by 5.0 mL of sterile 0.02 N sodium thiosulfate solution to neutralize the oxidative chlorine and thus terminate the disinfection action. Samples were vortexed for 2 minutes, and then serial dilutions were prepared using pH 7, 100 μM phosphate buffer and plated on Trypticase soy agar plates. After the plates were incubated at 37° C. for 24 hours, viable bacterial colonies were counted for the biocidal efficacy analysis.

[2] = system: Pseudomonas aeruginosa ATCC 27853; test: sandwich test, gauze pads (wound dressing); format: cell-based; settings: chlorine loading 0.47 ± 0.01 wt %, inoculum 6.12 logs
Protocol: as §1, §2

[3] = system: Escherichia coli O157:H7 ATCC 43895; test: sandwich test, gauze pads (wound dressing); format: cell-based; settings: chlorine loading 0.47 ± 0.01 wt %, inoculum 5.86 logs
Protocol: as §1, §2

[4] = hydrolysis equilibrium / dissociation of compound I to free chlorine; format: physicochemical
[5] = storage (shelf-life) stability of oxidative chlorine on impregnated fabrics, iodometric/thiosulfate titration; format: physicochemical; settings: for Chlorine loading, dark storage / Chlorine loading, fluorescent light: 22 g/m^2 fabric, 22° C.
Protocol: A modified iodometric/thiosulfate titration procedure was used to determine the active chlorine content on the fabrics impregnated with compound I (see, for example, Worley et al., “Novel N-halamine Siloxane Monomers and Polymers for Preparing Biocidal Coatings,” Surf Coat. Int., Part B, 2005; 88:93, herein incorporated by reference in its entirety). Cl^+% was calculated by the equation given below, where Cl^+% is the weight percent of the oxidative chlorine, N and V are
[formula] the normality (equiv/L) and volume (L) of the Na2S2O3 (titrant), respectively, and W is the weight of the polypropylene fabric in grams.
Storage or shelf-life stability of the impregnated 22 g/m^2 fabrics was evaluated in the instant example. Fabric samples were stored in a cabinet (e.g., a dark environment) without exposure to fluorescent light and on the laboratory bench (e.g., under fluorescent light) at room temperature. The stability of the chlorine content over time was measured for 24 weeks. The stabilities of the fabrics impregnated with compound I with a basis weight of 22 g/m^2 were determined at 22° C. by measuring the amount of remaining chlorine on the fabrics by using the standard iodometric/thiosulfate titration procedure.

Staphylococcus aureus = test: disinfection at low concentration in aqueous solution; format: cell-based; settings: 25 mg/L in aqueous solution; dependent on pH
Excerpt: In various embodiments provided herein, the N-halamine is 1-chloro-2,2,5,5-tetramethyl-4-imidazolidinone (“compound I”). Compound I is a stable N-halamine both in aqueous solution and in the solid state as long as it is not exposed to direct sunlight or extensive UV radiation. At ambient temperature, the hydrolysis equilibrium constant of compound I to produce its precursor 2,2,5,5-tetramethyl-4-imidazolidinone and “free chlorine” (HOCl) is lower than 10^−11. At low concentration in aqueous solution (e.g., 25 mg/L), long contact times (typically between 1-10 hours, dependent on pH) are required to obtain a 6-log reduction of Staphylococcus aureus. […] Furthermore, compound I is inexpensive and may be prepared according to the procedures described in U.S. Pat. No. 5,057,612, U.S. Pat. No. 5,126,057, or Tsao et al. (“Novel N-halamine Disinfectant Compounds,” Biotechnol. Prog., 1991; 7:60), the disclosures of all which are incorporated herein in their entirety.

[6] = contact time 1 min, listed as compound I

Structure (SMILES): CC1(C)NC(=O)C(C)(C)N1Cl [Compound I, 1-chloro-2,2,5,5-tetramethyl-4-imidazolidinone]
- Bacterial reduction (log) S. aureus ([1]; contact time 1 min): 3.07 log
- Bacterial reduction (log) S. aureus ([1]; contact time 5 min): 6.00 log
- Bacterial reduction (log) S. aureus ([1]; contact time 10 min): 6.00 log
- Bacterial reduction (log) S. aureus ([1]; contact time 30 min): 6.00 log
- Bacterial Reduction (log) P. aeruginosa ([2]; contact time 1 min): 6.12 log
- Bacterial Reduction (log) P. aeruginosa [2, 6]: about 6 log
- Bacterial Reduction (log) P. aeruginosa ([2]; contact time 5 min): 6.12 log
- Bacterial Reduction (log) P. aeruginosa ([2]; contact time 10 min): 6.12 log
- Bacterial Reduction (log) P. aeruginosa ([2]; contact time 30 min): 6.12 log
- Bacterial Reduction (log) E. coli O157:H7 ([3]; contact time 1 min): 5.86 log
- Bacterial Reduction (log) E. coli O157:H7 [3, 6]: about 6 log
- Bacterial Reduction (log) E. coli O157:H7 ([3]; contact time 5 min): 5.86 log
- Bacterial Reduction (log) E. coli O157:H7 ([3]; contact time 10 min): 5.86 log
- Bacterial Reduction (log) E. coli O157:H7 ([3]; contact time 30 min): 5.86 log
- dissociation constant (chlorine release) [4]: lower than 10^−11
- hydrolysis equilibrium constant to produce 2,2,5,5-tetramethyl-4-imidazolidinone and free chlorine (HOCl) ([4]; ambient temperature): lower than 10^−11
- Chlorine loading, dark storage ([5]; 2 weeks): 0.37 wt % Cl^+
- Chlorine loading, fluorescent light ([5]; 2 weeks): 0.05 wt % Cl^+
- Chlorine loading, dark storage ([5]; 3 weeks): 0.40 wt % Cl^+
- Chlorine loading, fluorescent light ([5]; 3 weeks): 0 wt % Cl^+
- Chlorine loading, dark storage ([5]; 5 weeks): 0.37 wt % Cl^+
- Chlorine loading, fluorescent light ([5]; 5 weeks): 0 wt % Cl^+
- Chlorine loading, dark storage ([5]; 8 weeks): 0.40 wt % Cl^+
- Chlorine loading, fluorescent light ([5]; 8 weeks): 0 wt % Cl^+
- Chlorine loading, dark storage ([5]; 12 weeks): 0.42 wt % Cl^+
- Chlorine loading, fluorescent light ([5]; 12 weeks): 0 wt % Cl^+
- Chlorine loading, dark storage ([5]; 24 weeks): 0.41 wt % Cl^+
- Chlorine loading, fluorescent light ([5]; 24 weeks): 0 wt % Cl^+
- Chlorine loading, dark storage ([5]; Initial): 0.36 wt % Cl^+
- Chlorine loading, fluorescent light ([5]; Initial): 0.40 wt % Cl^+
- chlorine loss on storage ([5]; fabrics exposed to fluorescent light, after 3 weeks of exposure): the remaining chlorine was lost
- chlorine loss on storage ([5]; fabrics exposed to fluorescent light, within a 2 week time period): Almost all of the initial chlorine loading was lost
- chlorine loss on storage ([5]; fabrics stored in dark environmental conditions, 6 month time period): no significant chlorine loss
- contact time required to obtain a 6-log reduction (Staphylococcus aureus): 1-10 hours
